Results on 33 compounds are retold here after patent US20170037028A1 (BAYER PHARMA AKTIENGESELLSCHAFT, priority 2013, published 2017).

Usually IC50 stands for the concentration at which inhibition is half-maximal.

The target in the assay is T1, GLUT1 (Homo sapiens, UniProt P11166).
T1 sequence (P11166 1-492): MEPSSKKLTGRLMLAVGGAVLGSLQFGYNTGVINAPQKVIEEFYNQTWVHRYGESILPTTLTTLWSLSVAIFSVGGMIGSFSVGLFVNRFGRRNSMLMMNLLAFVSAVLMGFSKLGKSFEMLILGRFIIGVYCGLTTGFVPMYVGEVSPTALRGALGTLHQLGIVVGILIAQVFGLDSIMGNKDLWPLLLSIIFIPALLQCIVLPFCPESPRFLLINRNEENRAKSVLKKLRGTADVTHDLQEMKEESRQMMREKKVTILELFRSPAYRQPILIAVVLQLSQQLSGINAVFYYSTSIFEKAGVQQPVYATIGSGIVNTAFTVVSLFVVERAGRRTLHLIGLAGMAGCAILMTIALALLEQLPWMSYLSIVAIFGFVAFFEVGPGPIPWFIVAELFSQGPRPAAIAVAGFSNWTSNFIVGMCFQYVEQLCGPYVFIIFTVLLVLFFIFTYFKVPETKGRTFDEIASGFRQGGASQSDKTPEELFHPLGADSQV
Nature of the assay: Indirect measurement of GLUT1 activity by quantification of intracellular ATP levels (glucose induced ATP increase). The format is cell-based. The arrangement: endogenous in cells; host or cells: DLD1 or CHO-K1. As to conditions: read-out: IC50 regarding glucose induced ATP increase (GLUT1 inhibition). The method in brief:
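Intracellular ATP was measured by CellTiter-Glo luminescence as an indirect readout of transport: glucose-driven for GLUT1, fructose-driven for GLUT2. DLD1 or CHO-K1 cells were used alongside an oxidative phosphorylation inhibitor. Beforehand, cells were held overnight in glucose-free 1% FCS medium to deplete ATP.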
Turning to `Cc1nn(Cc2ccc(F)c(F)c2)c(C)c1NC(=O)c1cc(C2CC2)nc2ccc(Cl)cc12` [Example 145, 6-chloro-2-cyclopropyl-N-[1-(3,4-difluorobenzyl)-3,5-dimethyl-1H-pyrazol-4-yl]quinoline-4-carboxamide], the IC50 was 6.1 nM. Then `Cc1nn(CCN2CCOCC2)c(C)c1NC(=O)c1cc(C(F)(F)F)nc2ccc(Br)cc12` [Example 1218], with 694 nM. Turning to `Cc1nn(Cc2ncccc2C#N)c(C)c1NC(=O)c1cc(C(N)=O)nc2cc(F)c(Cl)cc12` [Example 1411], the half-inhibitory concentration (IC50) was determined as 3.2 nM. Then `COc1cc(C(=O)Nc2c(C(F)(F)F)nn(Cc3ccncc3)c2C)c2ccccc2n1` [Example 1366], with 38.1 nM; and `Cc1nn(Cc2c(F)cc(C#N)cc2F)c(C)c1NC(=O)c1cc(C(N)=O)nc2cccc(F)c12` [Example 393, N^4-[1-(4-cyano-2,6-difluorobenzyl)-3,5-dimethyl-1H-pyrazol-4-yl]-5-fluoroquinoline-2,4-dicarboxamide], with 4.1 nM; and `COCCCS(=O)(=O)N1CCC(Cn2nc(C)c(NC(=O)c3cc(C(N)=O)nc4ccccc34)c2C)CC1` [Example 1513], with 60.8 nM. Then `CNC(=O)CN(C)C(=O)c1ccc(Cn2nc(C)c(NC(=O)c3cc(C(F)(F)F)nc4ccc(Br)cc34)c2C)cc1` [Example 1187], with 288 nM. Then `Cc1nn(Cc2ccc(C#N)nc2)c(C)c1NC(=O)c1cc(C(N)=O)nc2ccc(Br)cc12` [Example 293, 6-bromo-N^4-{1-[(6-cyanopyridin-3-yl)methyl]-3,5-dimethyl-1H-pyrazol-4-yl}quinoline-2,4-dicarboxamide], with 1 nM; and `Cc1nn(Cc2ccc(C(=O)NCC3CCCO3)cc2)c(C)c1NC(=O)c1cc(C(F)(F)F)nc2ccc(Br)cc12` (stereo not drawn) [Example 1058], with 15.3 nM; and `Cc1c(NC(=O)c2cc(C(N)=O)nc3ccccc23)c(C(F)(F)F)nn1Cc1ccc(C(C)(C)C#N)cc1` [Example 1667], with 46.6 nM. In the case of `Cc1nn(Cc2ccc(C#N)cn2)c(C)c1NC(=O)c1cc(C(N)=O)nc2ccc(Br)cc12` [Example 350, 6-bromo-N^4-{1-[(5-cyanopyridin-2-yl)methyl]-3,5-dimethyl-1H-pyrazol-4-yl}quinoline-2,4-dicarboxamide], the IC50 is 1.1 nM.

In the case of `COc1cc(C(=O)Nc2c(C)nn(Cc3ccccc3)c2C)c2ccccc2n1` [Example 65, N-(1-benzyl-3,5-dimethyl-1H-pyrazol-4-yl)-2-methoxyquinoline-4-carboxamide], the half-inhibitory concentration (IC50) came to 133 nM. Then `COc1cc(C#N)ccc1Cn1nc(C)c(NC(=O)c2cc(C(N)=O)nc3cc(F)c(Cl)cc23)c1C` [Example 1651], with 3.2 nM; and `Cc1c(NC(=O)c2cc(C(N)=O)nc3ccccc23)c(C(F)(F)F)nn1Cc1ccncc1` [Example 1367], with 275 nM. For `Cc1nn(Cc2cscn2)c(C)c1NC(=O)c1cc(C(N)=O)nc2ccccc12` [Example 1339], the IC50 is 72.2 nM.

`COc1cc(C(=O)Nc2c(C)nn(Cc3cc(F)ccc3F)c2C)c2ccccc2n1` [Example 1304]: the IC50 is 11100 nM. Then `CCc1nn(Cc2ccc(C#N)cc2)c(C)c1NC(=O)c1cc(C(N)=O)nc2cc(F)ccc12` [Example 327, N^4-[1-(4-cyanobenzyl)-3-ethyl-5-methyl-1H-pyrazol-4-yl]-7-fluoroquinoline-2,4-dicarboxamide], with 3.7 nM; and `Cc1nn(Cc2ccc(C#N)cc2)c(C)c1NC(=O)c1cc(C(N)=O)nc2cccc(F)c12` [Example 262, N^4-[1-(4-cyanobenzyl)-3,5-dimethyl-1H-pyrazol-4-yl]-5-fluoroquinoline-2,4-dicarboxamide], with 1.2 nM.

Take `Cc1nn(Cc2ccc(C(=O)NCCN(C)C)cc2)c(C)c1NC(=O)c1cc(C(N)=O)nc2cc(F)ccc12` [Example 1422]: the IC50 stood at 7110 nM. Then `Cc1nn(Cc2ccc(C#N)cc2F)c(C)c1NC(=O)c1cc(C(N)=O)nc2ccccc12` [Example 297, N^4-[1-(4-cyano-2-fluorobenzyl)-3,5-dimethyl-1H-pyrazol-4-yl]quinoline-2,4-dicarboxamide], with 0.8 nM; and `Cc1cc(C(=O)Nc2c(C)nn(Cc3ccc(F)cc3)c2C)c2ccccc2n1` [Example 105, N-[1-(4-fluorobenzyl)-3,5-dimethyl-1H-pyrazol-4-yl]-2-methylquinoline-4-carboxamide], with 528 nM; and `Cc1nn(Cc2ccc(F)cc2)c(C)c1NC(=O)c1cc(Cl)nc2ccccc12` [Example 99, 2-chloro-N-[1-(4-fluorobenzyl)-3,5-dimethyl-1H-pyrazol-4-yl]quinoline-4-carboxamide], with 364 nM.

For `Cc1nn(Cc2ccccc2C(F)(F)F)c(C)c1NC(=O)c1cc(C(F)(F)F)nc2ccc(Br)cc12` [Example 1301], the 50% inhibitory concentration (IC50) was determined as 11100 nM.

For `Cc1ccc2nc(C)cc(C(=O)Nc3c(C)nn(Cc4ccccc4)c3C)c2c1` [Example 92, N-(1-benzyl-3,5-dimethyl-1H-pyrazol-4-yl)-2,6-dimethylquinoline-4-carboxamide], the IC50 stood at 292 nM. Then `Cc1ccc2nc(C)cc(C(=O)Nc3c(C)nn(Cc4ccccc4OC(F)(F)F)c3C)c2c1` [Example 1287], with 6250 nM; and `CCc1c(NC(=O)c2cc(C(N)=O)nc3cccc(F)c23)c(C(F)(F)F)nn1Cc1ccc(C#N)cc1` [Example 316, N^4-[1-(4-cyanobenzyl)-5-ethyl-3-(trifluoromethyl)-1H-pyrazol-4-yl]-5-fluoroquinoline-2,4-dicarboxamide], with 19.8 nM; and `Cc1c(NC(=O)c2cc(C(F)(F)F)nc3ccc(Br)cc23)c(C(F)(F)F)nn1Cc1ccc(C#N)cc1` [Example 161, 6-bromo-N-[1-(4-cyanobenzyl)-5-methyl-3-(trifluoromethyl)-1H-pyrazol-4-yl]-2-(trifluoromethyl)quinoline-4-carboxamide], with 15.1 nM.

`Cc1cc(C(=O)Nc2c(C)nn(Cc3ccc(F)cc3)c2C)c2cc(Br)ccc2n1` [Example 43, 6-bromo-N-[1-(4-fluorobenzyl)-3,5-dimethyl-1H-pyrazol-4-yl]-2-methylquinoline-4-carboxamide]: the IC50 was found to be 31.7 nM. Consider `Cc1nn(Cc2ccc(C(=O)NCCN(C)C)cc2)c(C)c1NC(=O)c1cc(C(F)(F)F)nc2ccc(Br)cc12` [Example 142, 6-bromo-N-[1-(4-{[2-(dimethylamino)ethyl]carbamoyl}benzyl)-3,5-dimethyl-1H-pyrazol-4-yl]-2-(trifluoromethyl)quinoline-4-carboxamide], for which the IC50 came out at 70.7 nM. Then `CC(=O)c1ccc(Cn2nc(C(F)(F)F)c(NC(=O)c3cc(C(N)=O)nc4cccc(F)c34)c2C)cc1` [Example 1606], with 2.4 nM. Then `Cc1nn(Cc2ccc(C(=O)NCc3ccccc3)cc2)c(C)c1NC(=O)c1cc(C(F)(F)F)nc2ccc(Br)cc12` [Example 140, N-{1-[4-(benzylcarbamoyl)benzyl]-3,5-dimethyl-1H-pyrazol-4-yl}-6-bromo-2-(trifluoromethyl)quinoline-4-carboxamide], with 50 nM.

On to `COc1ccc2nccc(C(=O)Nc3c(C)nn(Cc4ccc(F)cc4)c3C)c2c1` [Example 192, N-[1-(4-fluorobenzyl)-3,5-dimethyl-1H-pyrazol-4-yl]-6-methoxyquinoline-4-carboxamide], for which the IC50 turned out to be 177 nM.

As to `Cc1nn(Cc2ccc(C(=O)NCCO)cn2)c(C)c1NC(=O)c1cc(C(F)(F)F)nc2ccc(Br)cc12` [Example 1093], the IC50 worked out at 38.4 nM.
